The target in this test is T1, human TLR7 (Homo sapiens, UniProt Q9NYK1).
T1 construct: host or cells: HEK293 (HEK-Blue hTLR7)
T1 sequence (Q9NYK1 27-1049): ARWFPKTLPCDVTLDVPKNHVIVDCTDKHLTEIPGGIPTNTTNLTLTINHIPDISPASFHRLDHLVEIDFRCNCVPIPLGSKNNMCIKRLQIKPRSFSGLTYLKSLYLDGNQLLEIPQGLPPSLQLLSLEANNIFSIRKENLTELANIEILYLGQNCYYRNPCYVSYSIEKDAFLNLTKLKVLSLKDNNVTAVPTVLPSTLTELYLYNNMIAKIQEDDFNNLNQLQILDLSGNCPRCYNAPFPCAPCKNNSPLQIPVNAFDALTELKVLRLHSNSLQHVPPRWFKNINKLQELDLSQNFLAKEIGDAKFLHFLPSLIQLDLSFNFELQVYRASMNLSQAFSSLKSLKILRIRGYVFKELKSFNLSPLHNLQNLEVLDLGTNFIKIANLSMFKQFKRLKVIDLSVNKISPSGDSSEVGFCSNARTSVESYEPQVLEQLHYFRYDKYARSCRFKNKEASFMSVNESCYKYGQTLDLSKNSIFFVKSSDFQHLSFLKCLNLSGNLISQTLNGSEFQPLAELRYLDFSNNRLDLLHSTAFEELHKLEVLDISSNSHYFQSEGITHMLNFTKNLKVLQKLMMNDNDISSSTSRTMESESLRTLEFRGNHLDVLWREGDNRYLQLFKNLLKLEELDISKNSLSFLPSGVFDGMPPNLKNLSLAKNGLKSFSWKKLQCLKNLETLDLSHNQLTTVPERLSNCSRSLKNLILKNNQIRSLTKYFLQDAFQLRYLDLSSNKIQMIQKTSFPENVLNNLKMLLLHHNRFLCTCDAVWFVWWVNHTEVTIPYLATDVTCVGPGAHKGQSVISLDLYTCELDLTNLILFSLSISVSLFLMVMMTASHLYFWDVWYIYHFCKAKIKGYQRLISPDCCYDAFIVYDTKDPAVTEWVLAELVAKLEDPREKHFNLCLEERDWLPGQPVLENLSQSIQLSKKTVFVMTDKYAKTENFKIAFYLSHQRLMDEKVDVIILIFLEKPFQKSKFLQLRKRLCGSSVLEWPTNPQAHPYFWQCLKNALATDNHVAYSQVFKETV
Nature of the test: HEK293-Blue hTLR7 Reporter Assay (QUANTI-BLUE, SEAP readout). It is filed as cell-based. The conditions noted are these: HEK-Blue-hTLR7 cells, 24 hrs treatment, Table 1, B1-B232. The method, then: HEK293-Blue hTLR7 Reporter Assay: HEK-Blue-hTLR7 cell line (Invivogen, Cat. No. hkb-htlr7) was designed so that the expression of the secreted embryonic alkaline phosphatase (SEAP) was induced by activating NF-κ and AP-1 via stimulating human TLR7 with TLR7 agonists. HEK-Blue-hTLR7 cells were seeded at a density of 4×10^4 cells/well in a volume of 180 μL in a 96-well plate in DMEM (Cat. No. 11965-092) supplemented with 10% (v/v) heat-inactivated fetal bovine serum (FBS) (Gibco, 10099-1441), 100 U/ml penicillin and 100 μg/ml streptomycin (Gibco, 15140122) containing 50 U/mL penicillin, […] and 10% (v/v) heat-inactivated fetal bovine serum. The cells were settled for 5 hrs, then treated with increasing amounts of tested compounds at 37° C. for 24 hrs. Then 20 μL of the supernatant from each well was incubated with 180 μL Quanti-blue substrate solution at 37° C. for 10-30 mins before the activity of the SEAP was determined at 620-655 nm using a spectrophotometer. The EC50 value for each compound was calculated with GraphPad Prism software using the sigmoidal dose-response function.
For orientation: A reporter such as luciferase makes a cellular process visible.

For orientation: EC50 means the midpoint of the concentration-response curve. Low readings indicate an effect from little substance, high ones a need for much substance.

In the case of `CCCCOc1nc(N)c2ncc(Cc3ccc(C4CCNCC4)c(C)c3)n2n1` [Compound B64, 2-butoxy-7-(3-methyl-4-(piperidin-4-yl)benzyl)imidazo[2,1-f][1,2,4]triazin-4-amine], the EC50 was determined as 448 nM.

For `CCCCCc1nc(N)c2ncc(Cc3cnc(N4CCNCC4)c(C)c3)n2n1` [Compound B180, 7-((5-methyl-6-(piperazin-1-yl)pyridin-3-yl)methyl)-2-pentylimidazo[2,1-f][1,2,4]triazin-4-amine], the EC50 came out at 270 nM.

For `CCCCOc1nc(N)c2ncc(Cc3cnc(N4CCNCC4)cc3Cl)n2n1` [Compound B7, 2-butoxy-7-((4-chloro-6-(piperazin-1-yl)pyridin-3-yl)methyl)imidazo[2,1-f][1,2,4]triazin-4-amine], a half-maximal effect (EC50) was put at 2380 nM.

Compound `C=CC(=O)N1CCN(c2ncc(Cc3cnc4c(N)nc(OCCCC)nn34)cc2Cl)CC1` [Compound B4, 1-(4-(5-((4-amino-2-butoxyimidazo[2,1-f][1,2,4]triazin-7-yl)methyl)-3-chloropyridin-2-yl)piperazin-1-yl)prop-2-en-1-one] gave an EC50 of over 10000 nM.

For `CCC(C)COc1nc(N)c2ncc(Cc3cnc(N4CCNCC4)c(C)c3)n2n1` (stereo not shown) [Compound B113, 7-((5-methyl-6-(piperazin-1-yl)pyridin-3-yl)methyl)-2-(2-methylbutoxy)imidazo[2,1-f][1,2,4]triazin-4-amine], the midpoint of the response, the EC50, lay at 447 nM.

`CCCCOc1nc(N)c2ncc(Cc3ccc(N4CCNCC4)cn3)n2n1` [Compound B16, 2-butoxy-7-((5-(piperazin-1-yl)pyridin-2-yl)methyl)imidazo[2,1-f][1,2,4]triazin-4-amine] came in with an EC50 of 1440 nM.

`CCCCOc1nc(N)c2ncc(Cc3ccc(N4CCNCC4)c(C(C)C)c3)n2n1` [Compound B90, 2-butoxy-7-(3-isopropyl-4-(piperazin-1-yl)benzyl)imidazo[2,1-f][1,2,4]triazin-4-amine] displayed a half-maximal effective concentration (EC50) of 2360 nM.

`CCCCOc1nc(N)c2ncc(Cc3cnc(N4CCC(CN(CC)CC)CC4)c(C)c3)n2n1` [Compound B126, 2-butoxy-7-((6-(4-((diethylamino)methyl)piperidin-1-yl)-5-methylpyridin-3-yl)methyl)imidazo[2,1-f][1,2,4]triazin-4-amine] gave a 50% effective concentration (EC50) of 22 nM.

In the case of `CCC(CC)Oc1nc(N)c2ncc(Cc3cnc(N4CCN(C(=O)CN(C)C)CC4)c(C)c3)n2n1` [Compound B200, 1-(4-(5-((4-amino-2-(pentan-3-yloxy)imidazo[2,1-f][1,2,4]triazin-7-yl)methyl)-3-methylpyridin-2-yl)piperazin-1-yl)-2-(dimethylamino)ethan-1-one], the EC50 worked out at 25 nM.

As to `CCCCOc1nc(N)c2ncc(Cc3cnc(N4CCC(OC)CC4)c(C)c3)n2n1` [Compound B103, 2-butoxy-7-((6-(4-methoxypiperidin-1-yl)-5-methylpyridin-3-yl)methyl)imidazo[2,1-f][1,2,4]triazin-4-amine], it took 7960 nM to reach a half-maximal effect (EC50).

`CCCC(C)Nc1nc(N)c2ncc(Cc3cnc(N4CCN(C(=O)CNC)CC4)c(C)c3)n2n1` (stereo not shown) [Compound B149, 1-(4-(5-((4-amino-2-(pentan-2-ylamino)imidazo[2,1-f][1,2,4]triazin-7-yl)methyl)-3-methylpyridin-2-yl)piperazin-1-yl)-2-(methylamino)ethan-1-one] came in with an EC50 of 6.3 nM.

Take `CCC[C@H](C)Oc1nc(N)c2ncc(Cc3cnc(N4CCC(CNC)CC4)c(C)c3)n2n1` (single isomer, unassigned) [Compound B221]: the concentration for a half-maximal effect (EC50) amounted to 3.9 nM.

In turn, `COCCOc1nc(N)c2ncc(Cc3cnc(N4CCNCC4)c(Cl)c3)n2n1` [Compound B5, 7-((5-chloro-6-(piperazin-1-yl)pyridin-3-yl)methyl)-2-(2-methoxyethoxy)imidazo[2,1-f][1,2,4]triazin-4-amine] came in with a concentration for a half-maximal effect (EC50) of 1230 nM.

Source of the values: patent publication US12612407B2, “Imidazo[2,1-f][1,2,4]triazin-4-amine derivatives as TLR7 agonist” (BEIGENE, LTD., priority 2020, dated 2026).
